Measurements as given in patent US5028731A, “Preparation of mixtures of cypermethrin or cyfluthrin isomers enriched in more active species” (FMC Corporation, priority 1989, dated 1991).
≈ marks a conversion by molar mass, not a printed value. Where two headings read alike, the source gives them in different places.

Experiments:
Tobacco Budworm = assay: Foliar LC50 - Tobacco Budworm; type: in vivo; settings: for LC50: Heliothis virescens
Description: This increase in activity is illustrated in Table II in which the test insect is the economically important tobacco budworm.
Foliar LC50 (ppm) - Tobacco Budworm

[1] = well known; c2, t2 pairs compared with c1 (III/IV) and t1 (VII/VIII) pairs; cited from earlier work

Work on `CC1(C)C(C=C(Cl)Cl)C1C(=O)OC(C#N)c1cccc(Oc2ccccc2)c1` (racemic) [Example 1, (R,S)-(cyano)(3-phenoxyphenyl)methyl cis/trans-3-(2,2-dichloroethenyl)-2,2-dimethylcyclopropanecarboxylate] yielded an LC50 (Tobacco Budworm; Average of Tests 1-3, read-out: Foliar LC50, Average) of 13.2 µg/mL (≈ 31.7 µM), an LC50 (Tobacco Budworm; Test 1, read-out: Foliar LC50) of 8.4 µg/mL (≈ 20.2 µM) and an LC50 (Tobacco Budworm; Test 2, read-out: Foliar LC50) of 18.7 µg/mL (≈ 44.9 µM). It also gave an LC50 (Tobacco Budworm; Test 3, read-out: Foliar LC50) of 12.5 µg/mL (≈ 30 µM).

In the case of `CC1(C)C(C=C(Cl)Cl)C1C(=O)OC(C#N)c1cccc(Oc2ccccc2)c1` (racemic) [Example 5, (R,S)-(cyano)(3-phenoxyphenyl)methyl cis/trans-3-(2,2-dichloroethenyl)-2,2-dimethylcyclopropanecarboxylate], the “Foliar LC50, Average” value (Tobacco Budworm; Average of Tests 1-3) is reported as 9.9 ppm, the “Foliar LC50” value (Tobacco Budworm; Test 1) is reported as 6.5 ppm and the “Foliar LC50” value (Tobacco Budworm; Test 2) is reported as 12.3 ppm. For the same compound, the “Foliar LC50” value (Tobacco Budworm; Test 3) was 11.0 ppm.

In the case of `CC1(C)[C@H](C(=O)O[C@H](C#N)c2cccc(Oc3ccccc3)c2)[C@@H]1C=C(Cl)Cl` (relative stereo) [c2 enantiomer pair], the insecticidal activity [1] is listed as “more insecticidally active”.

In the case of `CC1(C)[C@H](C=C(Cl)Cl)[C@H]1C(=O)O[C@H](C#N)c1cccc(Oc2ccccc2)c1` (relative stereo) [t2 enantiomer pair], the insecticidal activity [1] is listed as “more insecticidally active”.

For `CC1(C)[C@H](C(=O)O[C@H](C#N)c2cccc(Oc3ccccc3)c2)[C@@H]1C=C(Cl)Cl` [I, (S)-(cyano)(3-phenoxyphenyl)methyl 1R,cis-3-(2,2-dichloroethenyl)-2,2-dimethylcyclopropanecarboxylate], the insecticidal activity [1] is given as “most insecticidally active”.

For `CC1(C)[C@H](C=C(Cl)Cl)[C@H]1C(=O)O[C@H](C#N)c1cccc(Oc2ccccc2)c1` [V], the insecticidal activity [1] is given as “most insecticidally active”.
